Read-outs that look alike come from different tables or passages of the source.
How the values were obtained:
[1] = human, cited from earlier work
[2] = female rats, cited from earlier work; for Cmax/dose: normalization using sumatriptan succinate dosage
patients = details: within 24 hours or 48 hours of initial symptom resolution; cited from earlier work
[3] = Pharmacokinetic study of liposomal sumatriptan in rats after single subcutaneous administration
Experimental: Jugular vein cannulated (JVC) female Sprague-Dawley rats (7-9 weeks) were used for a pharmacokinetic (PK) study. The rats were housed in a holding room which operates on a 12-hour light/12-hour dark circadian cycle with free access (ad libitum) to water and food.
Blood samples were collected at 2, 4, 8, 24, 48 and 72 hours post-injection. Plasma samples were obtained by centrifugation and then dimethyl sulfoxide was added to the plasma samples at a final concentration of 5% (v/v) for storing the samples at −80° C. until analysis. One-hundred microliters of each sample were subject to separation of sumatriptan by a Strata C18-E tube to obtain the sumatriptan fraction and sumatriptan concentration was determined employing LC-MS/MS methods.
The unformulated sumatriptan injection was prepared by dissolving the sumatriptan tartrate in ultrapure water at 2 mg/mL. The in vivo PK profiles of the rats (n=3) administrated with unformulated sumatriptan following subcutaneous injection at the dosage of 3 mg/kg of sumatriptan tartrate were compared to the PK profiles of the rats administered 10 mg/kg of sumatriptan from the liposomal sumatriptan formulation. Blood samples were collected at 15 mins, 0.5, 1, 2, 4, 6 and 8 hours post-injection. Plasma samples were obtained by centrifugation and were kept frozen at −80° C. until analysis.
FIG. 1 depicts the mean sumatriptan concentration versus time curve over 72 hours post-injection. Table 2 provides a summary of the PK parameters which were obtained using a noncompartmental model within the PKSolver program.

[4] = unformulated 3 mg/kg, liposomal 10 mg/kg

In the case of `CNS(=O)(=O)Cc1ccc2[nH]cc(CCN(C)C)c2c1` [sumatriptan], the “half-life (t1/2)” value ([1]; 6 mg subcutaneous injection) is given as 2 h, the “half-life (t1/2)” value ([1]; 20 mg intranasal administration) is given as 1.8 h and the “half-life (t1/2)” value ([1]; 100 mg oral tablet) is given as 2 h. For the same compound, the “half-life (t1/2)” value ([1]; irrespective of route of administration) was “approximately 2 hours”, the “time to reach maximum plasma concentration” value ([1]; subcutaneous injection) was “approximately 10 minutes” and the t1/2 ([2]; intranasal administration) was 3.6 h. For the same compound, the Cmax/dose ([2]; intranasal) was 25 ng/mL, the t1/2 ([2]; intravenous administration) was 1.1 h and the Cmax/dose ([2]; intravenous) was 508.6 ng/mL. For the same compound, the migraine recurrence rate (patients) was “about 40%”.
“sumatriptan tartrate [Unformulated Sumatriptan]” gave an AUC0-t/dose ([3]; dose-normalized) of 226.9, a Cmax/dose ([3]; dose-normalized) of 138 and an AUC0-inf [3, 4] of 687.4 ng·h/mL. For the same compound, the AUC0-t [3, 4] was 680.6 ng·h/mL, the Cmax [3, 4] was 414 ng/mL and the t1/2 [3, 4] was 1.1 h.

Source: patent publication US11406628B2, “Sustained-release triptan compositions and method of use the same through subdermal route or the like” (Taiwan Liposome Co., Ltd, priority 2017, dated 2022)
